The text below walks through data of US20090099169A1, “Benzofuran Compounds As EP1 Receptor Antagonists” (GLAXO GROUP LIMITED, priority 2006, published 2009).

Counter-ions that a name gives are not always drawn. Where only a bound is given, the exact number is not on record here.

One test deals with T1, human TP receptor (Homo sapiens, UniProt P21731).
T1 construct: expressed in transfected cells; host or cells: CHO-K1
T1 sequence (P21731 1-343): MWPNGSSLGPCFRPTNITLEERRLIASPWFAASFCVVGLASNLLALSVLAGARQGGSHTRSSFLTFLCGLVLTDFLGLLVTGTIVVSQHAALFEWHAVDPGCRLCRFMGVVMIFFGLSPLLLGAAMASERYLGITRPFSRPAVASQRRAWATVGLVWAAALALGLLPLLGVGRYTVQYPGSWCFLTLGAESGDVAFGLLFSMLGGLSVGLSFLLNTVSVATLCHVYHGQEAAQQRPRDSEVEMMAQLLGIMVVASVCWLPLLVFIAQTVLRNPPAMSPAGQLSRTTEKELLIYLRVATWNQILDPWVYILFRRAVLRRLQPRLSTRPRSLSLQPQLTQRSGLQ
Nature of the test: human TP calcium mobilisation assay. Type of test: cell-based. The following applies: CHO-K1 cells, antagonism of U46619; averages of a number of experiments; read-out: functional pKi value (human TP calcium mobilisation assay) (converted). On the procedure: To determine if a compound has agonist or antagonist activity at the TP receptor a functional calcium mobilisation assay may be performed. Briefly, the antagonist properties of compounds are assessed by their ability to inhibit the mobilisation of intracellular calcium ([Ca^2+]i) in response to activation of TP receptors by the stable TXA2 mimetic U46619 (9,11-dideoxy-11α,9α-epoxy-methanoprostaglandin F2α; commercially available from e.g Sigma-Aldrich). Increasing concentrations of antagonist reduce the amount of calcium that a given concentration of U46619 can mobilise. The net effect is to displace the U46619 concentration-effect curve. The amount of calcium produced is assessed using a calcium-sensitive fluorescent dye such as Fluo-4, AM and a suitable instrument such as a Fluorimetric Imaging Plate Reader (FLIPR). Increasing amounts of [Ca^2+]i produced by receptor activation increase the amount of fluorescence produced by the dye and give rise to an increasing signal. The signal may be detected using the FLIPR instrument and the data generated may be analysed with suitable curve-fitting software. The agonist activity of the compounds are determined by their ability to cause an increase in intracellular mobilisation in the absence of U46619.
The human TP calcium mobilisation assay utilises Chinese hamster ovary-K1 (CHO-K1) cells into which a stable (pCIN; BioTechniques 20 (1996): 102-110) vector containing TP cDNA has previously been transfected. Cells are cultured in suitable flasks containing culture medium such as DMEM:F-12 supplemented with 10% v/v foetal calf serum, 2 mM L-glutamine, 0.25 mg/ml geneticin, 100 μM flurbiprofen and 10 μg/ml puromycin.
(§1) For assay, cells are harvested using a proprietary reagent that dislodges cells such as Versene. Cells are re-suspended in a suitable quantity of fresh culture media for introduction into a 96-well plate. Following incubation for 24 hours at 37° C. the culture media is replaced with a medium containing Fluo-4 and the detergent pluronic acid, and a further incubation takes place. Concentrations of compounds are then added to the plate in order to construct concentration-effect curves. This may be performed on the FLIPR in order to assess the agonist properties of the compounds. Concentrations of U46619 are then added to the plate in order to assess the antagonist properties of the compounds.
The data so generated may be analysed by means of a computerised curve-fitting routine. The concentration of compound that elicits a half-maximal inhibition of the calcium mobilisation induced by U46619 (pIC50) may then be estimated, and the percentage activation caused by the compounds directly can be used to determine if there is any agonism present.
On the technique in general: Calcium assays in cells follow changes in intracellular calcium, usually with a dye or a luminescent sensor.

In another test the target is T2, human EP3 receptor (Homo sapiens, UniProt P43115).
T2 construct: expressed in transfected cells; host or cells: CHO-K1
T2 sequence (P43115 1-390): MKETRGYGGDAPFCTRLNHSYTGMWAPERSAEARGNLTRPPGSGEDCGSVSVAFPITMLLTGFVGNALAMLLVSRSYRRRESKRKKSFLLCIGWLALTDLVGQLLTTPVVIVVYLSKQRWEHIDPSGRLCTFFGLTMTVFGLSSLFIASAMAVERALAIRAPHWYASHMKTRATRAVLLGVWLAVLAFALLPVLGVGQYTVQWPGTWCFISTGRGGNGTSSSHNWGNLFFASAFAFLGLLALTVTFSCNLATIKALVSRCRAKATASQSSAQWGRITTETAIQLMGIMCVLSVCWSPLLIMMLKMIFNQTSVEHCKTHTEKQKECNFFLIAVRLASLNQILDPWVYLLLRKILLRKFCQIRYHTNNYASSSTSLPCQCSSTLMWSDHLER
Description: human EP3 calcium mobilisation assay. Type of test: cell-based. The following applies: CHO-K1 cells, antagonism of PGE2; averages of a number of experiments; read-out: functional pKi value (human EP3 calcium mobilisation assay) (converted). On the procedure: Briefly, the antagonist properties of compounds are assessed by their ability to inhibit the mobilisation of intracellular calcium ([Ca^2+]i) in response to activation of EP1 or EP3 receptors by the natural agonist hormone prostaglandin E2 (PGE2). Increasing concentrations of antagonist reduce the amount of calcium that a given concentration of PGE2 can mobilise. The net effect is to displace the PGE2 concentration-effect curve to higher concentrations of PGE2. The amount of calcium produced is assessed using a calcium-sensitive fluorescent dye such as Fluo-4, AM and a suitable instrument such as a Fluorimetric Imaging Plate Reader (FLIPR). Increasing amounts of [Ca^2+]i produced by receptor activation increase the amount of fluorescence produced by the dye and give rise to an increasing signal. The signal may be detected using the FLIPR instrument and the data generated may be analysed with suitable curve-fitting software.
The human EP1 or EP3 calcium mobilisation assay (hereafter referred to as ‘the calcium assay’) utilises Chinese hamster ovary-K1 (CHO-K1) cells into which a stable (PCIN; BioTechniques 20 (1996): 102-110) vector containing either EP1 or EP3 cDNA has previously been transfected. Cells are cultured in suitable flasks containing culture medium such as DMEM:F-12 supplemented with 10% v/v foetal calf serum, 2 mM L-glutamine, 0.25 mg/ml geneticin, 100 μM flurbiprofen and 10 μg/ml puromycin.
as §1, with “384-well” for “96-well”, “PGE2” for “U46619”
The data so generated may be analysed by means of a computerised curve-fitting routine. The concentration of compound that elicits a half-maximal inhibition of the calcium mobilisation induced by PGE2 (pIC50) may then be estimated.

In test [1] the test system is rat model of chronic constriction injury. To be noted: Anesthesia and Analgesia 2001, 93, 1012-7; cited from earlier work.
The test system of test [2] is rodent model of post-operative pain. The following applies: Anesthesia and Analgesia 2001, 92, 233-238; cited from earlier work.
In test [3] the test system is gastric lesions induced by taurocholate acid, aspirin or indomethacin. To be noted: rats, Ogletree et al 1992; cited from earlier work.
For another test, the target named is T3, human EP1 receptor (Homo sapiens, UniProt P34995).
T3 sequence (P34995 1-402): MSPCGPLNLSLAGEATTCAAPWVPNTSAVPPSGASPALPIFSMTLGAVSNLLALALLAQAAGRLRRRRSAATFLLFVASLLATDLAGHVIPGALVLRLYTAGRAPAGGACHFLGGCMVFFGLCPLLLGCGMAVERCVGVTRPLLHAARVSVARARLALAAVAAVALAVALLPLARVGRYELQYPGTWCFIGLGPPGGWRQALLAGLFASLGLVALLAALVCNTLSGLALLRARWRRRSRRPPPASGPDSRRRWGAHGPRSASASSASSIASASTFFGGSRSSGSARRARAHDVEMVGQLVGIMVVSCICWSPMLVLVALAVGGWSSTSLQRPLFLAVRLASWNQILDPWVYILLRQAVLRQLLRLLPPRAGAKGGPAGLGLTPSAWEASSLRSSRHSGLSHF
Description: Binding assay for the human prostanoid EP1 receptor (radioligand competition). The arrangement: expressed in transfected cells; host or cells: CHO-K1 (membranes). To be noted: CHO-K1 membranes; [3H]-PGE2 for Examples 1-17, 19, 33, 34, 60 and 61, 3-{2-[5-Bromo-2-(2,4-difluorobenzyloxy)-phenyl]-5-methyl-pyrrol-1-yl}-6-[3H3-methoxy]methoxy-benzoic acid for the remaining; averages of a number of experiments; read-out: pIC50 value (binding assay for the human prostanoid EP1 receptor) (converted). In short, it runs like this: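 Membranes from CHO-K1 cells stably expressing human EP1, in pH 6 MES buffer with 10 mM MgCl2. Competition with [3H]-PGE2 (3 nM final) for 30 min at 30 °C, or alternatively with a tritiated benzoic-acid ligand (0.2 nM final) for 45 min at 37 °C; filtration and scintillation counting, IC50 by non-linear fitting.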

For the molecule `CC(C)c1cc2cc(Cl)cc(Cc3ccc(C(=O)Nc4c(F)cccc4F)o3)c2o1` [Example 8, 5-{[5-Chloro-2-(1-methylethyl)-1-benzofuran-7-yl]methyl}-N-(2,6-difluorophenyl)-2-furancarboxamide], the Ki at human TP receptor is > 3.16 µM; at human EP3 receptor, 0.501 to 10 µM. Turning to `Cc1cc(Cl)ccc1S(=O)(=O)NC[C@H]1C2CCC(CC2)[C@@H]1/C=C\CCCC(=O)O` [ONO-8711], in test [1], the hyperalgesia and allodynia result is “reduces hyperalgesia and allodynia”. Besides, the mechanical hyperalgesia result in test [2] is on record as “inhibits mechanical hyperalgesia”. Turning to `O=C(O)Cc1ccc(CCNS(=O)(=O)c2ccc(Cl)cc2)cc1` [BM 13505], the gastric lesions entry in test [3] is on record as “inhibit gastric lesions”. As for `CC(C)c1cc2cc(Cl)cc(Cc3ccc(-c4nc5ccccc5[nH]4)o3)c2o1` [Example 2, 2-(5-{[5-Chloro-2-(1-methylethyl)-1-benzofuran-7-yl]methyl}-2-furanyl)-1H-benzimidazole Hydrochloride], the Ki on human TP receptor was > 3.16 µM. Besides, the IC50 on human EP1 receptor is ≤ 0.1 µM.
